Data from patent US12421240B2, “Hydropyrazino[1,2-d][1,4]diazepine compounds for the treatment of autoimmune disease” (Hoffmann-La Roche Inc., priority 2019, dated 2025).

Legend:
[1] = target: T1, human TLR9 (Homo sapiens, UniProt Q9NR96); assay: HEK293-Blue-hTLR-9 cells assay (SEAP reporter, ODN2006 stimulation); assay type: cell-based; details: HEK293-Blue-hTLR9 cells, ODN2006 ligand, 20 hrs; read-out: HEK/hTLR9 IC50
T1 sequence (Q9NR96 26-1032): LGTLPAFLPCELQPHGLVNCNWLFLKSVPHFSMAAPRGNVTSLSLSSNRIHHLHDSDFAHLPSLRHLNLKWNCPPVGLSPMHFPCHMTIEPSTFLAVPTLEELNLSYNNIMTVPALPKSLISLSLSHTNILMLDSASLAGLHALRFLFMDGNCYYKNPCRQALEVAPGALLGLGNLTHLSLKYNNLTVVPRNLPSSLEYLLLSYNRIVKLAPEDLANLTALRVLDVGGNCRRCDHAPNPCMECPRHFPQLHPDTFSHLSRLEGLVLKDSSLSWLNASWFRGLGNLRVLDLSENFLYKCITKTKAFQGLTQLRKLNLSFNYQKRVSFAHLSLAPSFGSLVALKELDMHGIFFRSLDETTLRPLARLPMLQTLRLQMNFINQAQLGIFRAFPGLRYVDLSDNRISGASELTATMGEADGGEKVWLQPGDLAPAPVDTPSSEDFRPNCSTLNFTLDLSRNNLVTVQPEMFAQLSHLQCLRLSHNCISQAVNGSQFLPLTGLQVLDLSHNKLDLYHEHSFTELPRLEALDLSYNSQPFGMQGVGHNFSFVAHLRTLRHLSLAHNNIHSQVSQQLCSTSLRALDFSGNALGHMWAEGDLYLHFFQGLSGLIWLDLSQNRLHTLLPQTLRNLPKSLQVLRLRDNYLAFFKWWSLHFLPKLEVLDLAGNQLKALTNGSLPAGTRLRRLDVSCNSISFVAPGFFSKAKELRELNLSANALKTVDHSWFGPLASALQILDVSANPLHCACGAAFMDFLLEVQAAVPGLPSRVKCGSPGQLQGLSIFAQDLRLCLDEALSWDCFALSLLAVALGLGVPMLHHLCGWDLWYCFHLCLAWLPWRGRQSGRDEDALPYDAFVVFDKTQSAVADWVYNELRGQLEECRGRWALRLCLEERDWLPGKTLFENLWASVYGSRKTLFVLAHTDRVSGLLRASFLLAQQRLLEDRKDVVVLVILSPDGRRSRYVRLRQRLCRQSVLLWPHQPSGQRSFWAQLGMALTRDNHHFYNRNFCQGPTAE
Protocol: The following tests were carried out in order to determine the activity of the compounds of formula (I), (Ia) or (Ib) in HEK293-Blue-hTLR-7/8/9 cells assay.
HEK293-Blue-hTLR-9 Cells Assay:
A stable HEK293-Blue-hTLR-9 cell line was purchased from InvivoGen (Cat. #: hkb-htlr9, San Diego, California, USA). These cells were originally designed for studying the stimulation of human TLR9 by monitoring the activation of NF-κB. A SEAP (secreted embryonic alkaline phosphatase) reporter gene was placed under the control of the IFN-β minimal promoter fused to five NF-κB and AP-1-binding sites. The SEAP was induced by activating NF-κB and AP-1 via stimulating HEK-Blue hTLR9 cells with TLR9 ligands. Therefore the reporter expression was declined by TLR9 antagonist under the stimulation of a ligand, such as ODN2006 (Cat. #: tlrl-2006-1, Invivogen, San Diego, California, USA), for incubation of 20 hrs. The cell culture supernatant SEAP reporter activity was determined using QUANTI-Blue™ kit (Cat. #: rep-qb1, Invivogen, San Diego, California, USA) at a wavelength of 640 nm, a detection medium that turns purple or blue in the presence of alkaline phosphatase.
HEK293-Blue-hTLR9 cells were incubated at a density of 250,000˜450,000 cells/mL in a volume of 170 μL in a 96-well plate in Dulbecco's Modified Eagle's medium (DMEM) containing 4.5 g/L glucose, 50 U/mL penicillin, […], 2 mM L-glutamine, 10% (v/v) heat-inactivated fetal bovine serum with addition of 20 μL test compound in a serial dilution in the presence of final DMSO at 1% and 10 μL of 20 uM ODN2006 in above DMEM, perform incubation under 37° C. in a CO2 incubator for 20 hrs. Then 20 μL of the supernatant from each well was incubated with 180 μL Quanti-blue substrate solution at 37° C. for 2 h and the absorbance was read at 620-655 nm using a spectrophotometer. The signaling pathway that TLR9 activation leads to downstream NF-κB activation has been widely accepted, and therefore similar reporter assay was modified for evaluating TLR9 antagonist.

[2] = Human microsomal stability assay; assay type: in vitro ADME; details: human liver microsomes, 1 μM test compound, 0.5 mg/mL protein, 37° C.; low <7.0, medium 7.0-16.2, high 16.2-23.2
Protocol: Human Microsomal Stability Assay
Human liver microsomes (Cat. NO.: 452117, Corning, USA) were preincubated with test compound for 10 minutes at 37° C. in 100 mM potassium phosphate buffer, pH 7.4. The reactions were initiated by adding NADPH regenerating system. The final incubation mixtures contained 1 μM test compound, 0.5 mg/mL liver microsomal protein, 1 mM MgCl2, 1 mM NADP, 1 unit/mL isocitric dehydrogenase and 6 mM isocitric acid in 100 mM potassium phosphate buffer, pH 7.4. After incubation times of 0, 3, 6, 9, 15 and 30 minutes at 37° C., 300 μL of cold ACN (including internal standard) was added to 100 μL incubation mixture to terminate the reaction. Following precipitation and centrifugation, 100 uL supernatant will be taken out and added 300 uL water. The amount of compound remaining in the samples was determined by LC-MS/MS. Controls of no NADPH regenerating system at zero and 30 minutes were also prepared and analyzed. The results were categorized as: low (<7.0 mL/min/kg), medium (7.0-16.2 mL/min/kg) and high (16.2-23.2 mL/min/kg).

Structure (SMILES)	IC50 [1] [nM]	CL (h) [2] [mL/min/kg]
C[C@@H]1CN(c2ccc(C#N)c3ncccc23)C[C@@H]2CCN(Cc3cnc(N4CCNCC4)cn3)CCN21 [Example 15, 5-[(4R,10aS)-4-methyl-8-[(5-piperazin-1-ylpyrazin-2-yl)methyl]-1,3,4,6,7,9,10,10a-octahydropyrazino[1,2-d][1,4]diazepin-2-yl]quinoline-8-carbonitrile]	36.1	9.9
C[C@@H]1CN(c2ccc(C#N)c3ncccc23)C[C@@H]2CCN(Cc3ccc(N4CCNCC4)nc3)CCN21 [Example 17, 5-[(4R,10aS)-4-methyl-8-[(6-piperazin-1-yl-3-pyridyl)methyl]-1,3,4,6,7,9,10,10a-octahydropyrazino[1,2-d][1,4]diazepin-2-yl]quinoline-8-carbonitrile]	< 31.8	9.2
C[C@@H]1CN(c2ccc(C#N)c3ncccc23)C[C@@H]2CCN(Cc3cnc(N4CCNCC4)nc3)CCN21 [Example 14, 5-[(4R,10aS)-4-methyl-8-[(2-piperazin-1-ylpyrimidin-5-yl)methyl]-1,3,4,6,7,9,10,10a-octahydropyrazino[1,2-d][1,4]diazepin-2-yl]quinoline-8-carbonitrile]	70.5	9.8
C[C@@H]1CN(c2ccc(C#N)c3ncccc23)C[C@@H]2CCN(Cc3ccc4c(c3)CCNC4)CCN21 [Example 11, 5-[(4R,10aS)-4-methyl-8-(1,2,3,4-tetrahydroisoquinolin-6-ylmethyl)-1,3,4,6,7,9,10,10a-octahydropyrazino[1,2-d][1,4]diazepin-2-yl]quinoline-8-carbonitrile]	48.7	8.2
C[C@@H]1CN(c2ccc(C#N)c3ncccc23)C[C@@H]2CCN(c3cc4c(cn3)CNCC4)CCN21 [Example 7, 5-[(4R,10aS)-4-methyl-8-(5,6,7,8-tetrahydro-2,7-naphthyridin-3-yl)-1,3,4,6,7,9,10,10a-octahydropyrazino[1,2-d][1,4]diazepin-2-yl]quinoline-8-carbonitrile]	81.9	

Other lines, results leading:

IC50 [1] [nM]	CL (h) [2] [mL/min/kg]	Structure (SMILES)
39.1	8.8	C[C@@H]1CN(c2ccc(C#N)c3ncccc23)C[C@@H]2CCN(Cc3ncc(N4CCNCC4)cc3F)CCN21 [Example 23, 5-[(4R,10aS)-8-[(3-fluoro-5-piperazin-1-yl-2-pyridyl)methyl]-4-methyl-1,3,4,6,7,9,10,10a-octahydropyrazino[1,2-d][1,4]diazepin-2-yl]quinoline-8-carbonitrile]
< 31.8	6.5	C[C@@H]1CN(c2cc(=O)n(C)c3ncccc23)C[C@@H]2CCN(Cc3ccc4c(c3)CNCC4)CCN21 [Example 28, 4-[(4R,10aS)-4-methyl-8-(1,2,3,4-tetrahydroisoquinolin-7-ylmethyl)-1,3,4,6,7,9,10,10a-octahydropyrazino[1,2-d][1,4]diazepin-2-yl]-1-methyl-1,8-naphthyridin-2-one]
105	8.5	C[C@@H]1CN(c2ccc(C#N)c3ncccc23)C[C@@H]2CCN(Cc3ccc(N4CCOC[C@H](N)C4)cn3)CCN21 [Example 21, 5-[(4R,10aS)-8-[[5-[(6R)-6-amino-1,4-oxazepan-4-yl]-2-pyridyl]methyl]-4-methyl-1,3,4,6,7,9,10,10a-octahydropyrazino[1,2-d][1,4]diazepin-2-yl]quinoline-8-carbonitrile]
60.9	9.4	CO[C@@H]1CN(c2cnc(CN3CC[C@H]4CN(c5ccc(C#N)c6ncccc56)C[C@@H](C)N4CC3)c(F)c2)C[C@H]1N [Example 24, 5-[(4R,10aS)-8-[[5-[(3R,4R)-3-amino-4-methoxy-pyrrolidin-1-yl]-3-fluoro-2-pyridyl]methyl]-4-methyl-1,3,4,6,7,9,10,10a-octahydropyrazino[1,2-d][1,4]diazepin-2-yl]quinoline-8-carbonitrile]
